Results published in patent publication US6331555A, “Treatment of platelet derived growth factor related disorders such as cancers” (priority 1999, dated 2001).
Where two headings read alike, the source gives them in different places.

Legend:
HER2 = assay: Receptor tyrosine kinase inhibition, HER2; format: cell-based; settings: for IC50: read-out: HER2 IC50
Description: (§1) For western blotting, cells were plated in 2 mL growth medium into 6-well dishes (500,000 cells per well) and allowed to attach overnight. The medium was replaced with 2 mL MCDB 105 (UCSF Cell Culture Facility) supplemented with 1% FBS. The plates were then incubated overnight at 37° C., ambient CO2. […] After a 7 min incubation at room temperature with ligand, the plates were put on ice and washed three times with 1 mL ice-cold PBS plus 1 mM orthovanadate. Lysis was achieved by pipetting cells in 0.5 mL of buffer containing 50 mM Tris, pH 7.4, 10% glycerol, 1% NP-40, 2 mM EDTA, 1 mM sodium vanadate (Na3 VO4), 10 mM pyrophosphate, 1 mM PMSF, […]. A 300 μL aliquot of each lysate was immediately added to 100 μL 4×Laemmli sample buffer ([…] Tris pH 6.9, 20% glycerol, 7% SDS, 5 mM EDTA, 5% β-mercaptoethanol) containing phosphatase inhibitors, 2 mM Na3 VO4 and 10 mM pyrophosphate. Samples were boiled for 5 min, frozen in dry ice-ethanol, and stored at -80° C. Proteins were resolved by SDS-PAGE (Bio-Rad Miniprotean II) and transferred to nitrocellulose membrane (Schleicher & Schuell) at 120 volts for 1 hr at room temperature in buffer containing 25 mM Tris pH 8.3, 20% methanol, 0.2 M glycine, 0.1% SDS. The integrity of the protein-to-membrane transfer was determined by staining with 1% Ponceau S in 5% acetic acid for 5 min. After destaining in several distilled water rinses, the membrane was soaked overnight in blocking buffer containing 5% milk in Tris-buffered saline, 0.05% Tween 20. Phosphotyresine was detected by incubating the membrane (1 hr at room temperature) with an anti-phosphotyosine antiserum diluted in blocking buffer at 1:3000. For C6 cells, PDGF-β receptor content in the lysates was confirmed in duplicate sample lanes by western blotting using an antibody specific for PDGF-β receptor (UBI). The antibodies were visualized using ECL reagent from Amersham and by exposure to Fuji RX film.
For ELISA assays, cells were grown to 80-90% confluency in growth medium and seeded in 96-well tissue culture plates in 0.5% serum at 25,000 to 30,000 cells per well. After overnight incubation in 0.5% serum-containingmedium, cells were changed to serum-free medium and treated with test compound for 2 hr in a 5% CO2, 37° C. incubator. Cells were then stimulated with ligand for 5-10 min followed by lysis with HNTG (20 mM Hepes, 150 mM NaCl, 10% glycerol, 5 mM EDTA, 5 mM Na3 VO4 0.2% Triton X-100, and 2 mM NaPyr). Cell lysates (0.5 mg/well in PBS) were transferred to ELISA plates previously coated with receptor-specific antibody and which had been blocked with 5% milk in TBST (50 mM Tris-HCl pH 7.2, 150 mM NaCl and 0.1% Triton X-100) at room temperature for 30 min. Lysates were incubated with shaking for 1 hr at room temperature. The plates were washed with TBST four times and then incubated with polyclonol anti-phosphotyrosine antibody at room temperature for 30 min. Excess anti-phosphotyrosine antibody was removed by rinsing the plate with TBST four times. Goat anti-rabbit IgG antibody was added to the ELISA plate for 30 min at room temperature followed by rinsing with TBST four more times.
(§2) The ability of different compound to inhibit different receptor tyrosine kinases was tested.

U1242 cells = assay: Cytotoxicity in U1242 cells, MTT; format: cell-based, human; settings: for CC50: Homo sapiens, read-out: CYTOXICITY MTT U1242 LD50, heading: CYTOXICITY MTT U1242 LD50; for LD50 compared to A10: MTT or LDH
Description: The cytotoxicity of each drug was also determined. The cells were plated as described above. Following incubation with drug, cell survival was measured by an MTT assay as described by Mossman J. Immunol. Methods 65:55-63 (1983), or by measuring the amount of LDH released (Korzeniewski and Callewaert, J. Immunol. Methods 64:313 (1983); Decker and Lohmann-Matthes, J. Immunol. Methods 115:61 (1988) .

PDGFR = PDGFR (Homo sapiens, UniProt P09619); assay: Receptor tyrosine kinase inhibition, PDGFR; format: cell-based; set-up: U1242 (PDGF-β receptor); host or cells: U1242 glioma cells (ELISA); settings: read-out: PDGFR IC50
Chain of PDGFR (P09619 33-1106): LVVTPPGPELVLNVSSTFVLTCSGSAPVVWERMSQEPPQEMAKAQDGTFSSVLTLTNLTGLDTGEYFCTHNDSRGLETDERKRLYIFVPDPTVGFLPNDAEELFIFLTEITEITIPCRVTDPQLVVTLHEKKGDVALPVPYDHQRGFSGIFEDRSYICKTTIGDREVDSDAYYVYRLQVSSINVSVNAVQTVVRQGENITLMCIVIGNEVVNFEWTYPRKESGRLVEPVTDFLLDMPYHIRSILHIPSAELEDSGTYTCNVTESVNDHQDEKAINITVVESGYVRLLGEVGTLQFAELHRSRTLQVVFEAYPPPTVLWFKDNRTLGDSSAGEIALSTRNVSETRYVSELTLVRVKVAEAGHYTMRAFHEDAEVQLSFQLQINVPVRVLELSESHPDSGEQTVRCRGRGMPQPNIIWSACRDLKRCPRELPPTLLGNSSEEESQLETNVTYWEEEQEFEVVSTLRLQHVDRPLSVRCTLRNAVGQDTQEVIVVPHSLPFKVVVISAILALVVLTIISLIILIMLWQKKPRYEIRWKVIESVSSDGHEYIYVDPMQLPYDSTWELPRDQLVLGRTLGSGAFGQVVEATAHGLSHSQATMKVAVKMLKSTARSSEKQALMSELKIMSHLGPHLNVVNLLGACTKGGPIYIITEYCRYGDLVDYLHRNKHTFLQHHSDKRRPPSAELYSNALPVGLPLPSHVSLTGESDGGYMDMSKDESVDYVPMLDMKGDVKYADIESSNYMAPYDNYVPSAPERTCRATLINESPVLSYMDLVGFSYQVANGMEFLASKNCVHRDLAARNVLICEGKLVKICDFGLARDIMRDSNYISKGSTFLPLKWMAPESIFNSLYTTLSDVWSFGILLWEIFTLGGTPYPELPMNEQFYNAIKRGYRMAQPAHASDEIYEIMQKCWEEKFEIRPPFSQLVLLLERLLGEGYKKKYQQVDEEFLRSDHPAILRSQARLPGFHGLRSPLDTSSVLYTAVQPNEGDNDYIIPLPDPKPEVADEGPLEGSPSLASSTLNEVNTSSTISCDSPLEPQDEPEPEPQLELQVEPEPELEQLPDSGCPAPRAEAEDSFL
Description: as §1, with “The medium was replaced with 2 mL MCDB 105 (UCSF Cell Culture Facility) supplemented with 1% FBS.” left out, “Proteins were resolved by SDS-PAGE (Bio-Rad Miniprotean II) and transferred to nitrocellulose membrane (Schleicher & Schuell) at 120 volts for 1 hr at room temperature in buffer containing 25 mM Tris pH 8.3, 20% methanol, 0.2 M glycine, 0.1% SDS.” left out, “For C6 cells, PDGF-β receptor content in the lysates was confirmed in duplicate sample lanes by western blotting using an antibody specific for PDGF-β receptor (UBI).” left out
For ELISA assays, cells were grown to 80-90% confluency in growth medium and seeded in 96-well tissue culture plates in 0.5% serum at 25,000 to 30,000 cells per well. After overnight incubation in 0.5% serum-containingmedium, cells were changed to serum-free medium and treated with test compound for 2 hr in a 5% CO2, 37° C. incubator. […] Lysates were incubated with shaking for 1 hr at room temperature. The plates were washed with TBST four times and then incubated with polyclonol anti-phosphotyrosine antibody at room temperature for 30 min. Excess anti-phosphotyrosine antibody was removed by rinsing the plate with TBST four times. Goat anti-rabbit IgG antibody was added to the ELISA plate for 30 min at room temperature followed by rinsing with TBST four more times.
as §2

PDGF-R (U1242) = molecular target: T1, PDGF-R (U1242) (Homo sapiens, UniProt P09619); assay: U1242 kinase (PDGF-R activity); format: cell-based
T1 construct: U1242 (PDGF-β receptor); host or cells: U1242 MG glioma cells
T1 sequence (P09619 33-1106): as above
Outline: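 For ELISA, cells were held overnight in 0.5% serum, then treated with compound for 2 h at 37 °C in serum-free medium. Lysate phosphotyrosine was detected with polyclonal anti-phosphotyrosine antibody. In western blots, cells were stimulated with ligand for 7 min at room temperature and probed with anti-phosphotyrosine (1:3000).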

[1] = W = done in Western assay, read-out: U1242 KINASE IC50 (W)

Compound	HER2 phosphorylation (HER2)	CC50 (U1242 cells)	IC50 (HER2)	IC50 (PDGF-R (U1242); [1])	also measured
Cc1oncc1C(=O)Nc1ccc(C(F)(F)F)cc1 [Compound A10, 5-methylisoxazole-4 carboxylic acid-(4-trifluromethyl)-anilide]	little if any effect on EGF-receptor or HER2 phosphorylation	–	–	–	–
N#CC(=Cc1c[nH]c2ccccc12)C(N)=S [Compound D11]	–	90 µM	–	–	–
N#CC(=Cc1c[nH]c2ccccc12)c1[nH]nc(N)c1C#N [Compound D14]	do not effect EGF or HER2 phosphorylation	–	> 50 µM	–	IC50 (PDGFR): 47 µM
CN(C)CCCn1cc(C=C(C#N)c2[nH]nc(N)c2C#N)c2ccccc21 [Compound D15]	–	80 µM	–	–	–
O=c1c2ccccc2nc(C=Cc2ccc(O)c(O)c2)n1CCO [Compound F10]	–	–	–	45 µM	–
Cc1cc2ncc(-c3ccccc3)nc2cc1C [Compound G13]	do not effect EGF or HER2 phosphorylation	100 µM	> 50 µM	–	LD50 compared to A10 (U1242 cells): LD50 less than A10
COc1cc2ncc(-c3ccccc3)nc2cc1OC [Compound G14]	do not effect EGF or HER2 phosphorylation	–	–	0.8 µM	LD50 compared to A10 (U1242 cells): LD50 less than A10
c1ccc(-c2cnc3cc4ccccc4cc3n2)cc1 [Compound G22]	–	–	> 50 µM	0.9 µM	IC50 (PDGF-R (U1242); read-out: U1242 KINASE IC50): 14 µM; IC50 (PDGFR): 14 µM
